Measurements as given in US10968183B2, “Small molecule FIEL1 inhibitor in inflammatory and fibrotic lung injury” (UNIVERSITY OF PITTSBURGH—OF THE COMMONWEALTH SYSTEM OF …, priority 2015, dated 2021).
pIC50: −log10 of the molar value. Peptide text beside a SMILES is read from it. * marks the point of attachment. Cbz = O=C(OCc1ccccc1)*

Columns and labels:
[1] = system: PIAS4; test: PIAS4 protein half-life study (cycloheximide) in MLE cells; format: cell-based, murine; settings: addition of proteasomal or lysosomal inhibitor; FIG. 9B
From the text: FIG. 9A. PIAS4 protein half-life study in MLE cells transfected with Empty plasmid or Ubiquitin plasmid. FIG. 9B. PIAS4 protein half-life study with MG132 or Leupeptin. FIG. 9C. Immunoblots showing levels of PIAS4 proteins and V5 after ectopic FIEL1 or UBE3B plasmid expression. FIG. 9D. Immunoblots showing levels of FIEL1 proteins after ectopic FIEL1 plasmid expression in MLE, HeLa, and 293T cells. FIG. 9E. Immunoblots showing levels of PIAS4 proteins and V5 after ectopic FIEL1 plasmid expression in HeLa and 293T cells. FIG. 9F. MLE cells were transfected with an inducible control or FIEL1 plasmid under control of exogenous doxycycline. Cells were treated with doxycycline in a dose dependent manner. Cells were then collected and cell lysates were immunoblotted for FIEL1 and PIAS4. FIG. 9G. MRC5 cells were exposed to TGFβ for 24 h before being assayed for PIAS4 and FIEL1 protein half-lives.
(§1) FIG. 15A. Diagram of the BC-1485 synthesis process. FIGS. 15B-15C. Docking studies of the lead compound, BC-1485, interacting with the FIEL1-HECT domain. FIG. 15D. MRC5 cells were treated with the compound at various doses; cells were also co-treated with TGFβ at 2 ng/ml. 18 h later, cells were collected and assayed for α-SMA expression. FIG. 15E. MRC5 cells were seeded in 35 mm glass bottom dishes before co-treatment with TGFβ at 2 ng/ml and BC-1480 or BC1485 at 5μM. FIG. 15F. PIAS4 protein half-life determination after BC-1480 or BC1485 treatment at 5μM for 18 h. FIG. 15G. PIAS4 and KIAA0317 mRNA analysis after BC1485 treatment for 18 h.
MLE cells were cultured in Dulbecco's Modified Eagle Medium-F12 (Gibco) supplemented with 10% fetal bovine serum (DMEM-10). 293T cells were cultured in Dulbecco's Modified Eagle Medium (Gibco) supplemented with 10% fetal bovine serum (DMEM-10). MRC5 cells were cultured in Eagle's Minimum Essential Medium (Gibco) supplemented with 10% fetal bovine serum (EMEM-10). For protein expression in MLE cells, nucleofection was used following Amaxa's protocol. For protein overexpression in 293T cells, Fugene6HD transfection reagents were used following the manufacturer's protocol. […]

[2] = system: α-SMA expression in MRC5 cells; test: α-SMA expression in MRC5 cells co-treated with TGFβ; format: cell-based, human; settings: Homo sapiens; MRC5 cells, TGFβ 2 ng/ml, 18 h; FIG. 15D; read-out: IC50 for decrease of α-SMA expression
Procedure: as §1
MLE cells were cultured in Dulbecco's Modified Eagle Medium-F12 (Gibco) supplemented with 10% fetal bovine serum (DMEM-10). 293T cells were cultured in Dulbecco's Modified Eagle Medium (Gibco) supplemented with 10% fetal bovine serum (DMEM-10). MRC5 cells were cultured in Eagle's Minimum Essential Medium (Gibco) supplemented with 10% fetal bovine serum (EMEM-10). For protein expression in MLE cells, nucleofection was used following Amaxa's protocol. For protein overexpression in 293T cells, Fugene6HD transfection reagents were used following the manufacturer's protocol. For protein expression in MRC5 cells, MRC-5 Cell Avalanche™ Transfection Reagent was used following manufacturer's protocol. Cells were treated with TGFβ at 0-2 ng/ml for 0-18 h. For FIEL1, PKCξ, or GSK3β knockdown studies in cells, scramble shRNA, KIAA0317, PKCξ, or GSK3β shRNA were used to transfect cells for 48 h. For drug treatment, compounds were solubilized in DMSO before being added to the cells for up to 18 h. Cell lysates were prepared by brief sonication in 150 mM NaCl, 50 mM Tris, 1.0 mM EDTA, 2 mM dithiothreitol, 0.025% sodium azide, and 1 mM phenylmethylsulfonyl fluoride (Buffer A) at 4° C. For half-life study, MLE cells were exposed to cycloheximide (40 μg/ml) in a time dependent manner for up to 8 h. Cells were then collected and immunoblotted.

[3] = system: bleomycin-induced lung injury in C57BL/6J mice; test: Bleomycin lung fibrosis model in mice; format: in vivo; settings: bleomycin 0.05 U i.t., 7-21 days; estimated 5 mg/kg/d
Procedure: (§2) FIG. 7A. […] FIG. 7B. Structures of the BC-1480 backbone and lead compound BC-1485. FIG. 7C. FIEL1 protein was HIS-purified from FIEL1 expression in 293T cells using cobalt beads. Beads were then extensively washed prior to exposure to BC-1480 or BC-1485 at different concentrations (10^−4 to 100 μM). Purified PIAS4 protein was then incubated with drug-bound FIEL1 beads overnight. Beads were washed, and proteins were eluted and resolved on SDS-PAGE. The relative amounts of PIAS4 detected in the pull-downs was normalized to loading and quantified (n=2). FIG. 7D. MLE cells were exposed to BC-1480 or BC-1485 at various concentrations for 18 h. Cells were then collected and immunoblotted. FIGS. 7E-J. C57BL/6J mice were administered with bleomycin (0.05 U) for 7-21 days. Compounds BC-1480 and BC-1485 were given to mice through drinking water with an estimated dose of 5 mg/kg/d. Mice were euthanized, and lungs were lavaged with saline, harvested, and then homogenized. Lavage proteins, CXCL1, and total cell count were measured in FIGS. 7E-G. H. Survival studies of mice that were given bleomycin and compound treatments. Mice were carefully monitored over time; moribund, preterminal animals were immediately euthanized and recorded as deceased. Kaplan-Meier survival curves were generated using SPSS software (p<0.01 compared to Vehicle). Vehicle: n=24, BC-1480: n=13, BC-1485: n=12. FIG. 7I. Hydroxyproline contents were measured in lungs from 7, 14, and 21d after bleomycin challenge. FIG. 7J. Trichrome staining was performed on lung samples from E. Original magnification, ×10. *p<0.05 compared to Vehicle (t-test). Data are an average of two experiments (FIGS. 7E-J, 4-8 mice/group)
C57BL/6J mice were administered i.t. with bleomycin (0.05 U) for 7-21 days. Compounds BC-1480 and BC-1485 were given to mice through drinking water with an estimated dose of 5 mg/kg/d. Mice were then euthanized, and lungs were lavaged with saline, harvested, and then homogenized. Lavage IL-6 was measured in (FIG. 16A). Lavage cells were also processed for Wright-Giemsa stain; Lavage macrophages, neutrophils and lymphocytes were counted and graphed (FIGS. 16B-16D). H&E staining was performed on lung samples from A. Original magnification, ×10. *p<0.05 compared to Vehicle (t test). Data are an average of two experiments (A-E, 4-8 mice/group).
Murine lungs were dried and weighed prior to digestion with HCl. Hydroxyproline concentrations were measuring using methods previously described in Kesava Reddy et al., Clinical Biochemistry, 29(3): 225-229 (1996), and Neuman et al., J. of Biol. Chem., 184(1): 299-306 (1950). Hydroxyproline content was normalized to dry lung weight.
All procedures were approved by the University of Pittsburgh Institutional Animal Care and Use Committee. For fibrosis studies, male C57BL/6J mice were deeply anesthetized using a ketamine/xylazine mixture, and the larynx was well visualized under a fiber optic light source before endotracheal intubation with a 3/400 24-gauge plastic catheter. 10^7 CFU of lentivirus encoding genes for Empty (E), FIEL1, CON shRNA, or KIAA0317 shRNA was given i.t. for 144 h before administration of bleomycin (0.02 U˜0.05 U i.t.) for up to 21 days. Animals were euthanized and assayed for BAL protein, cell count, cytokines, and lung infiltrates. Survival studies were performed on mice that were given bleomycin (0.02 U˜0.05 U i.t.). Mice were carefully monitored over time; moribund, preterminal animals were immediately euthanized and recorded as deceased. For drug studies, mice were deeply anesthetized as above. Bleomycin (0.05 U i.t.) was given i.t. before BC-1480 or BC-1485 (5 mg/kg/d) was administered to the mice through their drinking water. 7-21d later, animals were euthanized and analyzed as above.

[4] = molecular target: T1, FIEL1/PIAS4 interaction (Homo sapiens, UniProt O15033); test: In vitro drug binding assay: PIAS4 pull-down on drug-bound FIEL1 beads; settings: FIG. 7
T1 construct: made in house; host or cells: 293T cells (FIEL1)
T1 sequence (O15033 1-789 isoform O15033-2): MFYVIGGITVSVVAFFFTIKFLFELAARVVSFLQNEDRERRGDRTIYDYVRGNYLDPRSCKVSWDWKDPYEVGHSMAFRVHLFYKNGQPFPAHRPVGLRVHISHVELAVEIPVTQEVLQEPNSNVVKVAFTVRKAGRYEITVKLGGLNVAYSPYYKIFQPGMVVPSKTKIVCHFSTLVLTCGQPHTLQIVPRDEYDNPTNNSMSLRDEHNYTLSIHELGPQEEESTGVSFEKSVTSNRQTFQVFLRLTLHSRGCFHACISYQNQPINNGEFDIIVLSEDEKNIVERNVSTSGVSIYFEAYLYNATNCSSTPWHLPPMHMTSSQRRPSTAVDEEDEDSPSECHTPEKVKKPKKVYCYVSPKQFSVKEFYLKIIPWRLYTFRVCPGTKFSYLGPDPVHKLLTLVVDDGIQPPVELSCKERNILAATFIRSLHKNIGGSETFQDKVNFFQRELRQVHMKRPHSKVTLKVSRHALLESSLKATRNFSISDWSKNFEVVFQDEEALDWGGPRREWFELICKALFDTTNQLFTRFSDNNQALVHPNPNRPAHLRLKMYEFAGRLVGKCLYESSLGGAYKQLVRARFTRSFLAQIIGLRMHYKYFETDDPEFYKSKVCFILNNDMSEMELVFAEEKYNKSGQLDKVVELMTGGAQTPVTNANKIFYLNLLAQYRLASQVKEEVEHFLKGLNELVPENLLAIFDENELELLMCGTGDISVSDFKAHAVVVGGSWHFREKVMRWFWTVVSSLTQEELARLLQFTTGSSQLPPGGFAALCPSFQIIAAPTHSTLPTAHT
Procedure: as §2
FIEL1 protein was HIS-purified from FIEL1 expression 293T cells using cobalt beads. Beads were then extensively washed prior to exposure to BC-1480 or BC-1485 at different concentrations (10^−4 to 100 μM). Purified recombinant PIAS4 protein was then incubated with drug-bound FIEL1 beads overnight. […] The relative amounts of PIAS4 detected in the pull-downs were normalized to loading and quantified.

SMILES | PIAS4 protein half-life [1] | pIC50 [2] | lung (pulmonary) fibrosis [3] | inhibition of FIEL1 and PIAS4 interaction [4]
CC(=O)N[C@@H](CC(C)C)C(=O)N[C@@H](CC(C)C)C(=O)N[C@H](C=O)CCCNC(=N)N [Leupeptin] | an effect unobserved | – | – | –
CC(C)C[C@@H](C=O)NC(=O)[C@H](CC(C)C)NC(=O)[C@H](CC(C)C)NC(=O)OCc1ccccc1 [MG132] (Cbz-Leu-Leu-Leu-aldehyde) | significantly increased | – | – | –
O=C(O)c1ccc(NS(=O)(=O)c2ccc3[nH]c(=O)[nH]c3c2)cc1 [BC-1480, 4-(2-oxo-2,3-dihydro-1H-benzo[d]imidazole-5-sulfonamido)benzoic acid] | – | ~5.40 | inhibition of pulmonary fibrosis | inhibition of FIEL1 and PIAS4 interaction
